Source: patent publication US11964974B1, “Imidazo[1,2-c]pyrido[3,4-e]pyrimidine-3-carboxylic acids as CK2 inhibitors” (KING FAISAL UNIVERSITY, priority 2024, dated 2024)

Legend:
[1] = tested on: PC3 (prostate); assay: In vitro cytotoxic activity assay (MTT), PC3; type: cell-based; conditions: Homo sapiens, Prostate cell; PC3 (prostate) cells, exposed for 96 hours; read-out: Cytotoxicity activity IC50
Description: (§1) Compounds 1-16 were screened for their in vitro cytotoxic activity utilizing a 3-(4,5-dimethyl-thiazol-2-yl)-2,5-diphenyltetrazolium bromide (MTT) assay against selected cancer human cell lines consisting of PC3 (prostate), HCT116 (colon), A375 (melanoma), H1299 (lung), MIAPaCa-2 (pancreas), HL60 (leukemia), MCF7 (breast), MDA-MB-231 (breast) (T. Mosmann, J. Immunol. Meth., 1983, 65, 55-63). The cells were cultured at 37° C. in RMPI1640 medium supplemented with 10% fetal bovine serum, 50 IU/mL penicillin, and 50 μg/mL streptomycin in a 5% CO2 incubator. All cells were sub-cultured 3 times/week by trypsinisation. Viable cells were seeded and allowed to adhere for 12 hours before a test drug was added in 96-well plates at an initial density of 1.0×10^5 cells/mL. Tumor cell lines were separately exposed to various concentrations of the tested compounds followed by incubation at a temperature of 37° C. during 96 hours inside a medium of fresh RMPI 1640. Cells were subsequently incubated at 37° C. using MTT at 0.5 mg/mL during 4 hours. After removal of supernatant, formazan crystals were dissolved in isopropanol and the optical density was measured at 570 nm. CX-4945 was used as a positive control.

[2] = tested on: HL60 (leukemia); assay: In vitro cytotoxic activity assay (MTT), HL60; type: cell-based; conditions: Homo sapiens, HL-60; HL60 (leukemia) cells, exposed for 96 hours; read-out: Cytotoxicity activity IC50
Description: as §1

[3] = tested on: H1299 (lung); assay: In vitro cytotoxic activity assay (MTT), H1299; type: cell-based; conditions: Homo sapiens, NCI-H1299; H1299 (lung) cells, exposed for 96 hours; read-out: Cytotoxicity activity IC50
Description: as §1

[4] = biological target: T1, recombinant human CK2 (RRββ-holoenzyme) (Homo sapiens, UniProt P68400); assay: CK2 Kinase Assay (radiometric, [γ-33P]ATP); type: biochemical; conditions: final ATP concentration 15 μM, 10 min at 30° C.; read-out: protein kinase CK2 inhibition IC50
T1 construct: purchased Millipore
T1 sequence (P68400 whole entry): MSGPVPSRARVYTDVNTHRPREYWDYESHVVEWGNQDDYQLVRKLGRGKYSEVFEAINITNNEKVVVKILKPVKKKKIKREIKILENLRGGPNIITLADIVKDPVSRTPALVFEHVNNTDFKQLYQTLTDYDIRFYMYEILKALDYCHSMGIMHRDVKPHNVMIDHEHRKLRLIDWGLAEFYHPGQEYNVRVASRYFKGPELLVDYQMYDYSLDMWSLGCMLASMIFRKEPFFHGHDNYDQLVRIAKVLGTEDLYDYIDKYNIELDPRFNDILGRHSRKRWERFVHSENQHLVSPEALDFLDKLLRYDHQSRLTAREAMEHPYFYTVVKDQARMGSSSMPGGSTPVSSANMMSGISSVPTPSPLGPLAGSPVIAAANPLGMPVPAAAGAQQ
T1 sequence (P67870 whole entry partner): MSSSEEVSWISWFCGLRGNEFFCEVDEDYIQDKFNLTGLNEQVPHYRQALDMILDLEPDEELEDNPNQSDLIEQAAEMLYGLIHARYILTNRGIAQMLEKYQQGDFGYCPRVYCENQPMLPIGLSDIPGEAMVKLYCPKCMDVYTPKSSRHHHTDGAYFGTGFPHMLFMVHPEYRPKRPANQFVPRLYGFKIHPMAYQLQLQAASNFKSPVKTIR
Description: CK2 Kinase Assay was conducted using the protocol as described in Pierre F. et al; J. Med. Chem. 2011, 54, 635-654. The tested compounds in aqueous solution were added at a volume of 10 μL to a reaction mixture comprising 10 μL of assay dilution buffer (ADB; 20 mM MOPS, pH 7.2, 25 mM β-glycerol phosphate, 5 mM EGTA, 1 mM sodium orthovanadate, and 1 mM dithiothreitol), 10 μL of substrate peptide (RRRDDDSDDD, dissolved in ADB at a concentration of 1 mM), 10 μL of recombinant human CK2 (RRββ-holoenzyme, 25 ng dissolved in ADB; Millipore). Reactions were initiated by the addition of 10 μL of ATP solution (90% 75 mMMgCl2, 75 μM ATP (final ATP concentration: 15 μM) dissolved in ADB; 10% [γ-33P] ATP (stock 1 mCi/100 μL; 3000 Ci/mmol (Perkin-Elmer) and maintained for 10 min at 30° C. The reactions were quenched with 100 μL of 0.75% phosphoric acid and then transferred to and filtered through a phosphor cellulose filter plate (Millipore). After washing each well five times with 0.75% phosphoric acid, the plate was dried under vacuum for 5 min and, following the addition of 15 μL of scintillation fluid to each well, the residual radioactivity was measured using a Wallac luminescence counter. The IC50 values were derived from eight concentrations of test inhibitors.

[5] = tested on: MCF7 (breast); assay: In vitro cytotoxic activity assay (MTT), MCF7; type: cell-based; conditions: Homo sapiens; MCF7 (breast) cells, exposed for 96 hours; read-out: Cytotoxicity activity IC50
Description: as §1

[6] = tested on: HCT116 (colon); assay: In vitro cytotoxic activity assay (MTT), HCT116; type: cell-based; conditions: Homo sapiens, HCT-116; HCT116 (colon) cells, exposed for 96 hours; read-out: Cytotoxicity activity IC50
Description: as §1

[7] = tested on: A375 (melanoma); assay: In vitro cytotoxic activity assay (MTT), A375; type: cell-based; conditions: Homo sapiens, A-375; A375 (melanoma) cells, exposed for 96 hours; read-out: Cytotoxicity activity IC50
Description: as §1

[8] = tested on: MDA-MB-231 (breast); assay: In vitro cytotoxic activity assay (MTT), MDA-MB-231; type: cell-based; conditions: Homo sapiens; MDA-MB-231 (breast) cells, exposed for 96 hours; read-out: Cytotoxicity activity IC50
Description: as §1

[9] = tested on: MIAPaCa-2 (pancreas); assay: In vitro cytotoxic activity assay (MTT), MIAPaCa-2; type: cell-based; conditions: Homo sapiens, MIA PaCa-2; MIAPaCa-2 (pancreas) cells, exposed for 96 hours; read-out: Cytotoxicity activity IC50
Description: as §1

O=C(O)c1cnc2c3cnccc3nc(Nc3cccc(Cl)c3)n12 [Compound 1, 5-((3-chlorophenyl)amino)imidazo[1,2-c]pyrido[3,4-e]pyrimidine-3-carboxylic acid]
IC50 [1]: 1.8 µM | IC50 [2]: 6.7 µM | IC50 [3]: 2.9 µM | IC50 [4]: 0.035 µM | IC50 [5]: 5.3 µM | IC50 [6]: 3.2 µM | IC50 [7]: 5.6 µM | IC50 [8]: 4.9 µM | IC50 [9]: 1.6 µM
